Results published in US11571485B2, “Peptides and antibodies for detecting changes in alzheimer's disease brain and methods of use thereof” (Sanford Burnham Prebys Medical Discovery Institute, priority 2016, dated 2023).
Bridges are numbered along the chain shown (N, C = ends). FAM = fluorescein-amide / fluoresceinamine label

How the values were obtained:
[1] = system: hippocampus of hAPP-J20 AD and wild-type mice; test: In vivo CX7C T7 phage library screen, sequencing of phage recovered from hippocampus; set-up: species or system mouse; details: for Frequency/%: hippocampus 30 min after i.v. phage library, high throughput sequencing of inserts; for Representation in sequenced phage pools, AD versus normal brain: 9-month AD mouse vs normal mouse hippocampus
Method: In vivo phage screening was conducted using a T7 phage library expressing random peptides with the composition of CXnC (C=cysteine; X=any amino acid; n=7). The mouse model used for this screening is the hAPP-J20 that expresses amyloid precursor protein (APP) with both the Swedish and Indiana mutations (Murrell et al., Science 254, 97-99. (1991); Mullan et al., Nat. Genet. 1, 345-347. (1992)). Peptides homing to the hippocampus of these mice was the focus because the hippocampal region is where the AB-related lesions and damage are most prevalent early on in the disease.
A CX7C phage library was intravenously injected into 9 month-old AD and wild-type (WT) littermate mice, and allowed to circulate for 30 min, after which mice were perfused with saline, brains were collected, and the hippocampal region was dissected and subjected to phage titration and high throughput sequencing of the phage inserts. A surprise result was that the number of phage recovered from the AD hippocampus samples was much higher than the number recovered from a similar screen on normal littermates of the AD mice (FIG. 1A). […] BBB leakage has also been reported in AD patients.
Parallel phage library screens were performed on a normal mouse and a 9-month old AD transgenic mouse (J20 hAPP tg mouse line, which expresses transgenic amyloid precursor protein with two disease-related mutations). The library was intravenously injected into anesthetized mice and the hippocampal area of the brain was collected 30 min after intravenous injection of the library, phage was isolated from the tissue samples and subjected to high throughput sequencing of the peptide-encoding inserts in the phage DNA. Table 1 list most abundantly represented peptide from the two kinds of brains, and all peptides with significant representation in the AD brain and absent or nearly absent in the normal brain are listed in Table 2. Two peptides, CASPRLSKC (SEQ ID NO: 3) and CESPLLSEC (SEQ ID NO: 11), from among the highest scoring ones were subjected to detailed studies as described below.
hAPP-J20 mice were intravenously injected with 1e10 pfu of a CX7C (wherein X is any amino acid) naïve phage library, in 100 μL of PBS. The library was allowed to circulate for 30 minutes, after which mice were anesthetized with 2.5% avertin and perfused with PBS intracardially. The brain was removed and the hippocampus was extracted and homogenized in LB-NP 40 (1%) and phage was processed as described (Teesalu et al., Methods Enzymol 503, 35-56 (2012)). The phages in the lysate were rescued by amplification in E. coli and peptide-encoding portion of the phage genome was sequenced using Ion Torrent high throughput sequencing.

AD hippocampus = test: Homing of intravenously injected individual peptide-displaying phages; assay type: in vivo, mouse; details: intravenously injected phage displaying the peptide
Description: FIG. 1B relates to phage titration showing that about 5 times more phage were recovered from the AD hippocampus than from the normal control. In the sequencing, phages displaying the peptides code named CASP (SEQ ID NO: 3; CASPRLSKC), CES (SEQ ID NO: 11, CESPLLSEC), and DAG (SEQ ID NO: 102, CDAGRKQKC) dominated. Hippocampus from age-matched normal wild-type mouse brain was used as a control.

[2] = system: hAPP-J20 mouse brain (hippocampus); details: i.v., 30 min circulation, 9-month-old AD (hAPP-J20) vs normal/WT mice
Method: The synthetic peptides were labeled with FAM and 100 nmol and were intravenously injected to 9-month old AD mice through the tail vein. The peptides were allowed to circulate for 30 min, after which the mice were perfused with 20 ml of PBS, the brains were collected and snap-frozen in OCT for sectioning. The peptides were detected by anti-FAM staining (green), nuclei were stained with DAPI (blue), and anti-CD31 was used to visualize blood vessels.
For peptide homing, mice were intravenously injected with 50 nmole peptide dissolved in PBS, and allowed to circulate for 30 min. Mice were then perfused intracardially with saline and all major organs were isolated and fixed in 4% paraformaldehyde (PFA) at pH 7.4 overnight. The organs were then washed with PBS and placed in graded sucrose solutions overnight before optimal cutting temperature compound (OCT) embedding. Ten-micro-meter-thick sections were cut and analyzed by immunostaining.
Frozen sections were permeabilized using PBS- 0.2% Triton™ X-100 (PBST), blocking was carried out using blocking buffer (5% BSA, 1% goat serum, 1% donkey serum in PBST. Primary antibodies were incubated in diluted (1%) blocking buffer overnight at dilutions 1/100 or 1/200 at 4° C., washed with PBST and incubated with secondary antibodies diluted 1/200 or 1/500 in 1% diluted buffer for 1 hour at room temperature, subsequently washed with PBST, counterstained with DAPI 1 μg/mL in PBS for 5 minutes, washed with PBS, mounted using aqueous mounting media (Vector Biolabs), and imaged using a confocal microscope (Zeiss LSM-710).

recombinant human CTGF = target: T1, recombinant human CTGF (Homo sapiens, UniProt P29279); test: ELISA binding to recombinant CTGF; details: non-labeled DAG 0.5 mM
T1 construct: purchased Affymetrix 14-8503-80
T1 sequence (P29279 253-349 limits assumed): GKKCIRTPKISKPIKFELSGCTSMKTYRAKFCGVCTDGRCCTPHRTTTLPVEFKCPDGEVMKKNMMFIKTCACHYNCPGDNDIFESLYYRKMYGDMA
Method: FIG. 10 is a graphical representation relating to identification of a receptor for DAG. DAG binds to recombinant CTGF. FAM-DAG was incubated on ELISA plate coated with recombinant human CTGF at two different peptide concentrations of the FAM peptide alone (light gray bars), or in the presence of non-labeled DAG (0.5 mM) (dark gray bars). […] DAG was also shown to colocalize with CTGF. FAM-DAG was intravenously injected in 9-month-old hAPP-J20 and WT mice, allowed to circulate for 30 minutes, after which mice were perfused, and the brains were fixed, sectioned and stained for FAM (green) and CTGF (red).
Human CTGF recombinant protein (Affymetrix Cat #14-8503-80) was incubated on Nunc low-binding plates at concentration of 10 μg/ml for overnight at 4° C. Excess protein in the plates was removed by washing with PBS-T (PBS with 0.005% Tween 20). Plates were blocked with 200 μl of 3% non-fat milk in PBS for 1 hour at room temperature and washed with PBS-T once. Biotin-labeled peptide (at different concentrations) in PBS was added to the plate for 2 hours at 37° C. For peptide inhibition, non-labeled DAG peptide (0.5 mM) was added 30 minutes prior to addition of labeled peptide. The plates were washed with 100 μl PBS-T for three times to remove excess peptide. The bound peptide was detected by incubating with 100 μl of Vectastain ABC™ reagent (Vector labs, Burlingame, Calif.) for 30 minutes. The plate was washed with 100 μl PBS-T three times. Next, 100 μl of o-phenylenediamine dihydrochloride (OPD) silver and gold substrate (Sigma-Aldrich) was added to the wells and incubated at room temperature until visible color was observed (˜30 min). Adding 50 μl of 1 M H2SO4 stopped the reaction and the plate was read at 495 nm (FlexStation™ 3 Reader, Molecular Devices, Sunnyvale, Calif., USA).

[3] = Alzheimer's mouse (9-month old J20 hAPP tg)

| Substance | Frequency/% ([1]; Wild-type mouse) [%] | Frequency/% [1, 3] [%] | other results |
| --- | --- | --- | --- |
| CADDGC [SEQ ID NO: 94] | 1.244 | – | – |
| CARVKK [SEQ ID NO: 91] | 1.67 | – | – |
| CASPRLSKC [SEQ ID NO: 3] | – | 0.7226 | Representation in sequenced phage pools, AD versus normal brain [1]: dominated; Phage accumulation in normal brain (AD hippocampus): no accumulation in normal brain; Phage homing to AD hippocampus (AD hippocampus): home to AD hippocampus with high specificity; Homing of FAM-labeled peptide to hippocampus [2]: homed to the dentate gyms of AD brain but not normal brain |
| CATPRDKRTC [SEQ ID NO: 87] | 2.373 | – | – |
| CELSQ [SEQ ID NO: 97] | 1.089 | – | – |
| CEQVRQKRC [SEQ ID NO: 4] | – | 0.3956 | – |
| CESPLLSEC [SEQ ID NO: 11] | – | 0.316 | Representation in sequenced phage pools, AD versus normal brain [1]: dominated; Phage accumulation in normal brain (AD hippocampus): no accumulation in normal brain; Phage homing to AD hippocampus (AD hippocampus): home to AD hippocampus with high specificity; Homing of FAM-labeled peptide to hippocampus [2]: homed to the dentate gyms of AD brain but not normal brain |
| CKVRKSEGC [SEQ ID NO: 85] | 3.559 | – | – |
| CLSLD [SEQ ID NO: 88] | 2.286 | – | – |
| CLTDNEETC [SEQ ID NO: 7] | – | 0.3341 | – |
| CNSKETSRC [SEQ ID NO: 5] | – | 0.3885 | – |
| CRKQGEAKC [reference compound] | – | – | Homing of FAM-labeled peptide to hippocampus [2]: essentially no homing to the hippocampus of hAPP-J20 mice |
| CRKQPTNVC [SEQ ID NO: 92] | 1.495 | – | – |
| CRTPLNPRC [SEQ ID NO: 95] | 1.171 | – | – |
| CSDRRLIDC [SEQ ID NO: 90] | 1.737 | – | – |
| CSGDMETKC [SEQ ID NO: 89] | 1.846 | – | – |
| CSGKAQRGC [SEQ ID NO: 100] | – | 0.3349 | – |
| CSKTTE [SEQ ID NO: 2] | – | 0.8549 | – |
| CSPE [SEQ ID NO: 6] | – | 0.3766 | – |
| CSRTSKQAC [SEQ ID NO: 98] | 1.022 | – | – |
| CSTNA [SEQ ID NO: 93] | 1.426 | – | – |
| CTKTAK [SEQ ID NO: 10] | – | 0.3191 | – |
| CTREGNETC [SEQ ID NO: 96] | 1.098 | – | – |
| CTVNGKRSC [SEQ ID NO: 99] | 0.9707 | – | – |
| CVPKGKLVC [SEQ ID NO: 84] | 4.678 | – | – |
| CVPKGKLVLLSL [SEQ ID NO: 86] | 2.377 | – | – |
| FAM-CASPRLSKC: fluorescein-amide (FAM)-labeled CASPRLSKC peptide ({FAM}-CASPRLSKC-NH2; cysteine pairing not given here) | – | – | Homing of FAM-labeled peptide to hippocampus [2]: homed to AD, but not normal, hippocampus |
| FAM-CESPLLSEC: fluorescein-amide (FAM)-labeled CESPLLSEC peptide ({FAM}-CESPLLSEC-NH2; cysteine pairing not given here) | – | – | Homing of FAM-labeled peptide to hippocampus [2]: homed to AD, but not normal, hippocampus |
| FAM-DAG: Fluoresceinamine (FAM)-labeled synthetic DAG peptide ({FAM}-CDAGRKQKC-NH2; disulfide 1-9 (inferred); not fully specified) | – | – | Inhibition of CTGF binding by unlabeled DAG (recombinant human CTGF): Non-labeled DAG inhibited the binding of FAM-DAG; Homing of FAM-labeled peptide to hippocampus [2]: specifically homed AD hippocampus |
| SSVDKL [SEQ ID NO: 9] | – | 0.3223 | – |
